Columns and labels:
Cav2.2 current = assay: Whole-cell calcium current recording in DRG neurons; assay type: cell-based, chick; conditions: 1.4 ng/ml peptide in recording pipette; after 2 minutes of recording
Experimental: Electrophysiology: Standard tight seal, whole-cell recording methods [Hamill et al.,1981 Pflugers Arch. 381, 85-10] were employed. Cells were incubated in an external solution containing 133 mM NaCl, 1 mM CaCl2, 0.8 mM MgCl2, 25 mM HEPES, 12.5 mM NaOH, 5mM glucose, 10 mM tetraethylammonium chloride, […] (pH 7.4). Experiments were performed on the stage of an inverted microscope. Recording pipettes were fabricated from microhemnatocrit tubing (Fisher) and filled with an internal recording solution containing 150 mM CsCl, 5 BAPTA, 5 MgATP, 10 HEPES (pH 7.2). All salts were obtained from Fluka. Initial pipette resistances were 0.8-1.2 MΩ. […]
Electrophysiology Data Analysis—Data was filtered at 3 kHz, acquired at 10-20 kHz and analyzed using PulseFit (HEKA) and IgorPro (WaveMetrics) on a Macintosh G3 computer. […] Such conditioning pulses have no effect on control currents recorded in the absence of GABA. During the application of the transmitter, test pulse currents measured before and after the conditioning pulse are subtracted to yield the voltage-dependent component. Test pulses measured following the conditioning pulse are subtracted from control currents (measured in the absence of GABA) to yield the voltage-independent component.

[1] = tested on: cell-surface myc-L1-CAM on ND-7 cells; assay: L1-CAM diffusion behavior assay: movement of 9E10-coated beads bound to myc-L1-CAM (video microscopy, laser tweezers); assay type: cell-based, rat
Text: Video microscopy, laser tweezers, and data analysis: The 9E10-coated latex beads were then placed and held with an optical gradient laser trap on the surface of transfected cells at a distance of between 0.5 and 1 μm from the leading edge for 2 seconds. The laser trap consisted of a Titanium Sapphire (Coherent; model 890) solid state laser pumped by a 5 W frequency-doubled Neodymnium Vanadate laser (Verdi; Coherent) and tuned to 800 nm. This wavelength was previously determined to generate the fewest heating artifacts in live cells (Svoboda and Block. Biomol Struct 1994;23:-247-285 and Choquet et al. Cell 1997;88:39-48). Laser power at the output of the Titanium Sapphire laser was 40 mW, and prepared beads were placed and held on the cell surface for less than 3 sec to further reduce the possibility of heating artifacts. Laser light was introduced through the television port of the Axiovert microscope.
Video images of bead movement were collected using a newvicon camera (Dage MTI; VE-1000N) and background subtraction and contrast enhancement were carried using a Hamamatsu Argus 20 image processor. Raw data were recorded to sVHS video tape for subsequent analysis. Video recordings were subsequently digitized onto an Intel processor-based computer running the Isee imaging software (Isee Imaging) running under Red Hat Linux 7.1. Quantification of bead movement was carried out in Isee. Diffusional analysis was carried out using a custom spreadsheet in Excel (Microsoft). This spreadsheet carries out 4 operations: first, it scales the data from pixel measurements to nm using the appropriate scale factor (determined by the magnification used to observe bead movement); second, it subtracts the first point from all of the data, to set the origin at 0,0 (x,y coordinates); third, it rotates (in two dimensional space) the data around the origin so that the orientation of the cell is the same from trial to trial (here, the data was set so that the cells all face to the left); and fourth, the spreadsheet calculates the mean square displacement (MSD) data which are used to calculate diffusion coefficients and bead velocity. Individual traces were scored blind for classes of behavior. Statistical analysis of percentages of trials was carried out using chi-squared analysis or a Fisher's exact probability test.
MSD values were calculated as previously described (see Qian et al, 1991; Biophysical Journal 60 p910). For these calculations, the squared displacement (a^2+b^2; where a=xn+t−xn, b=a=yn+t−yn for any two points separated by time t) of the bead was calculated between two points in the data set. The mean of the squared displacements was calculated for each time interval t=1 to m, where m is the time interval that equals 10% of the length of the data set. The mean displacement was plotted with respect to time giving a curve with a linear or quadratic shape, depending on the behavior of the bead. Diffusion rates and velocity were calculated by fitting the curve with the equation MSD=4Dt+v^2t^2, where D is the diffusion coefficient, v is the velocity and t is time. D and v were calculated for each bead independently and presented as averages or as individual values, as described in each case.
Cell culture and transfection: ND-7 cells (rat neuroblastoma/DRG hybrid cells) were plated and transfected with pMyc-L1-CAM, pMyc-L1-CAM-YF, pMyc-L1-CAM-YH, or pMyc-L1-CAM-STOP expression constructs as described in Example 3, supra.
In some instances, ND-7 cells transfected with pMyc-L1-CAM were treated with the cytoskeletal inhibitor cytochalasin D (2 μM; Sigma) or nocadazole (1 μM; Sigma). For these experiments treatment with DMSO (0.01%) vehicle alone served as the negative control.
In some instances, ND-7 cells transfected with pMyc-L1-CAM were treated with neural growth factor (NGF) to stimulate phosphorylation of tyrosine 1229 (Y1229) of the L1-CAM cytoplasmic domain, and thereby inhibit ankyrin binding. […]

[2] = ND-7 cells expressing myc-L1-CAM, 1.4 μg/ml peptide for 30 minutes

Sequence	inhibition of calcium current (Cav2.2 current)	bead velocity compared to untreated controls ([1]; 1.4 μg/ml peptide)	percentage of beads showing stationary behavior [1, 2]	percentage of trials undergoing retrograde movement [1, 2]
RQIKIWFQNRRMKWKKFQGIFSGDENFQ [AP-Scramble]	no significant effect	no significant effect		
RQIKIWFQNRRMKWKKQFNEDGSFIGQF [AP-YF]	83+17%		reduced	increase

Source: patent publication US7737250B2, “Peptides for treating axonal damage, inhibition of neurotransmitter release and pain transmission, and blocking calcium influx in neurons” (Mount Sinai School of Medicine of New York University, priority 2003, dated 2010)
